According to BindingDB's records for doi:10.1016/j.ejmech.2021.113780 (Shandong University, 2021):

Experiment: Inhibition of capsid protein in HBV infected in human HepDES19 cells assessed as inhibition of viral replication incubated for 3 days by strand preferential qPCR analysis

| SMILES | EC50 |
| --- | --- |
| CCOC(=O)C1=C(CN2CC3(CC2=O)CN(C(=O)OC(C)(C)C)C3)NC(c2nccs2)=NC1c1ccc(F)cc1Br (centres undefined) | 13.3 µM |
| CCOC(=O)C1=C(CN2CCC3(CCN(C(=O)OC(C)(C)C)C3)C2=O)NC(c2nccs2)=NC1c1ccc(F)cc1Br (centres undefined) | 5.17 µM |
| CCOC(=O)C1=C(CN2CC3(CCN(C(=O)OC(C)(C)C)C3)CC2=O)NC(c2nccs2)=NC1c1ccc(F)cc1Br (centres undefined) | 10 µM |
| CCOC(=O)C1=C(CN2CCC3(CNC(=O)C3)C2)NC(c2nccs2)=NC1c1ccc(F)cc1Br (centres undefined) | 2.6 µM |
| CCOC(=O)C1=C(CN2CCC3(CC2)CNC(=O)C3)NC(c2nccs2)=NC1c1ccc(F)cc1Br (centres undefined) | 3.8 µM |
| CCOC(=O)C1=C(CN2CCC3(CC2)CNC3=O)NC(c2nccs2)=NC1c1ccc(F)cc1Br (centres undefined) | 1.17 µM |
| CCOC(=O)C1=C(CN2CCC3(CC(=O)N(Cc4ccccc4)C3=O)C2)NC(c2nccs2)=NC1c1ccc(F)cc1Br (centres undefined) | 2.1 µM |
| CCOC(=O)C1=C(CN2CCC3(CC2)OCCO3)NC(c2nccs2)=NC1c1ccc(F)cc1Br (centres undefined) | 0.2 µM |
| CCOC(=O)C1=C(CN2CCC3(CC2)CN(C(=O)OC(C)(C)C)C3)NC(c2nccs2)=NC1c1ccc(F)cc1Br (centres undefined) | 10.4 µM |
| CCOC(=O)C1=C(CN2CCC3(CCN(C(=O)OC(C)(C)C)C3)C2)NC(c2nccs2)=NC1c1ccc(F)cc1Br (centres undefined) | 4.83 µM |
| CCOC(=O)C1=C(CN2CCC3(C2)CN(C(=O)OC(C)(C)C)C3)NC(c2nccs2)=NC1c1ccc(F)cc1Br (centres undefined) | 8.83 µM |
| CCOC(=O)C1=C(CN2CCC3(CCNC3=O)CC2)NC(c2nccs2)=NC1c1ccc(F)cc1Br (centres undefined) | 3.43 µM |
| CCOC(=O)C1=C(CN2CCC3(CC2)CC(=O)NC3=O)NC(c2nccs2)=NC1c1ccc(F)cc1Br (centres undefined) | 0.68 µM |
| Nc1ccn([C@@H]2CS[C@H](CO)O2)c(=O)n1 [Epivir] | 0.37 µM |
